In patent US11242370B2, “Neuregulin-4 compounds and methods of use” (Eli Lilly and Company, priority 2019, dated 2022):
Numbering of substitutions follows the chain as printed. In names and notes the source's numbering stands. Marks after values point to notes of the source that are not given here.

Key:
[1] = system: rat model of heart failure with reduced ejection fraction (HFrEF); test: Rat MI model, captopril, Example 10 or combination, echocardiography; type: in vivo; design: Left Ventricle Diameter (end diastole): unit not given here
Method: A nonclinical efficacy pharmacology study is conducted in a rat model of heart failure with reduced ejection fraction (HFrEF) to evaluate cardiac function and structure changes after captopril treatment, Example 10 treatment or combination treatment.
The left coronary artery is permanently ligated. All rats are individually housed in a temperature and humidity controlled room and maintained on a 12 hour light/dark cycle. Two to three weeks after surgery, rats undergo transthoracic echocardiography for determination of ejection fraction (EF %) and left ventricle dimensions (LVD) using a Vevo 2100 ultrasound system. Rats are randomized across treatment groups according to EF % and LVD.
Measurements of EF % and LVD are expressed as mean values±standard error (SE). Statistical analysis is performed with JMP® 13 software (SAS Institute, Inc.; Cary, N.C.) and Dunnett's Test is used for statistical comparisons across treatment groups. Statistical significance is accepted at P<0.05.
Three weeks after MI surgery, animals are randomized to 2 treatment groups (Placebo or captopril, 2 g/L in drinking water, ad lib) according to EF % and LVD. Three weeks and four weeks after dosing starts, cardiac function (EF %) and structure (LVD) are evaluated by transthoracic echocardiography. Animals are further randomized to additional groups based on cardiac function (EF %) and structure (LVD) to the following groups: Placebo, Example 10, captopril and Example 10+captopril. Animals in the Example 10 groups receive a single injection on week 4 after the 2nd randomization. Cardiac function (EF %) and structure (LVD) are evaluated on week 5 and 6.

human HER2 and HER4 = biological target: T1, human HER2 and HER4 (Homo sapiens, UniProt Q15303); test: Screening by human HER2-HER4 mediated ERK 1/2 phosphorylation in CHO-hHER2-hHER4 (clone 1H6) cells; type: cell-based; conditions: Fc variants as 293F supernatants
T1 construct: expressed in transfected cells
Method: A cell based assay utilizing CHO-K1 cells overexpressing human or rat HER receptors is used to determine activity of NRG4 compounds. CHO-K1 cells (ATCC) are grown in DMEM-F12 3:1 with 5% FBS with 20 mM HEPES, 40 μg/mL L-Proline, lx antibiotics and were split 1:5 every 2-3 days with TripLE Express (Gibco). Cells are transfected with plasmid DNA encoding HER receptors in pairs (hHER2-3, hHER2-4, rHER2-3 and rHER2-4) with Fugene 6 (Promega) according to the manufacturer's instructions. […] Transfected cells are selected with Puromycin (12 ug/ml) and Hygromycin (1 mg/ml) for 3-4 weeks and clonal lines are obtained by limited dilution cloning into 96 well plates. Clonal lines are selected by appropriate gene expression of HER2, HER3 or HER4 by Taqman method. Lines with appropriate receptor expression are confirmed by NRG1 induced phospho-ERK 1/2 responses. Clones are grown up, harvested, aliquoted into cryovials and then frozen under liquid nitrogen for long-term storage.
A phospho-ERK1/2 activity assay is used to determine potencies of NRG4 compounds. The potency of Examples 1-8 and 10 as compared to WT human NRG1 and/or human NRG4 are analyzed in studies measuring stimulation of human HER2-HER4 mediated ERK 1/2 phosphorylation. This assay comprises a CHO-K1 stable line expressing human HER2 and HER4. CHO-hHER2-hHER4 (clone 1H6) cells are routinely cultured in DMEM: F12(3:1), 5% FBS, 40 μg/mL L-Proline, 10 μg/mL puromycin and 1 mg/mL hygromycin at 37° C., 5% CO2. Cells are washed twice with 1×PBS, dissociated with 0.05% trypsin/[…] EDTA and collected by centrifugation at 300×g for 10 m. Cells are re-suspended in maintenance media. 20,000 cells/well, in 30 μL, are seeded into 384 well Poly-D-Lysine cell culture plates (Greiner, Cat No. 781946). Plates are covered with a manufacturer's lid and moved to a 37° C. tissue culture incubator at 5% CO^2, 80%+ humidity and allowed to adhere. After 24 h, media are removed from the plates and replaced with 30 μL serum-free starvation media (Low glucose DMEM with 0.1% BSA) using a Biomek FX liquid handler. Plates are returned to the incubator for 24 h.
hFcNRG4 variants, transiently expressed as 293F supernatants, are prepared in starvation media in a clear 384W plate (Greiner, cat no. 781185) as a 4pt 1:8 serial dilution (dose range averaged between 250 pM to 140000 pM). Media are removed from the cell culture plates and the 30 uL/well prepared variants are stamped into the plates using a Biomek FX liquid handler. Plates are sealed with a foil seal and stimulated for 15 minutes at room temperature on an orbital shaker. Cells are then washed once with 50 uL cold PBS. 30 uL lysis buffer is added to the cells and oscillated for 10 m at RT on an orbital shaker.
Detection of phosphorylation of ERR 1/2 is performed with either an AlphaScreen SureFire phospho-ERK1/2 kit (T202/Y204) (Perkin Elmer, catalog no. TGRES) or an AlphaLISA® SureFire® Ultra™ p ERK1/2 assay kit together with the AlphaScreen Protein. A IgG Detection Kit (Protein-A) (PerkinElmer, catalogue no. 6760617). After lysis of the CHO-K1 cells. 4 μL lysate is transferred to a 384W Alpha Proxiplate (Perkin Elmer, cat no, 6008280) with a 384W Biomek FX. 4 uL positive and negative lysates (Perkin Elmer, TGRES-L) are added to available wells as controls. 5 uL/well acceptor mix (containing anti-phoso-Thr202/Tyr204 antibodies and Protein A conjugated acceptor beads) is added to the plate with a Forumlatrix Mantis. The plate is sealed, spun down for 1 min at 300×g and incubated for 2 hr at room temperature on an orbital shaker. 2 μL/well donor mix (containing strepavidin coated donor beads and biotinylated antibodies to a distal ERK1/2 epitope) is dispensed by Mantis. The plate is sealed, spun down for 1 min at 300×g and incubated for 2 hr at room temperature on an orbital shaker before reading on the Perkin Elmer Envision 2103 Multilabel Reader (HIS Alpha mode, excitation time: 40 ms, total measurement time: 130 ms). […]

[2] = Baseline (before captopril 2 g/L in drinking water)
[3] = Week 3 of captopril 2 g/L in drinking water
[4] = Week 4 (2nd randomization; before the single injection of Example 10)
[5] = Week 5 (single injection of Example 10 on week 4; captopril 2 g/L in drinking water)
[6] = Week 6 (single injection of Example 10 on week 4; captopril 2 g/L in drinking water)
[7] = Table 5, Examples average of two replicates ± standard deviation

Q: How did the “Ejection Fraction” value [1, 2] turn out when `C[C@H](CS)C(=O)N1CCC[C@H]1C(=O)O` [Captopril, captopril] was run?
A: 39.1%

Q: And the “Left Ventricle Diameter (end diastole)” value [1, 2]?
A: 8.66

Q: What about the “Ejection Fraction” value [1, 3] of the same molecule?
A: 38.4%

Q: What about the “Left Ventricle Diameter (end diastole)” value [1, 3] of the same molecule?
A: 8.57

Q: What about the “Ejection Fraction” value [1, 4] of the same molecule?
A: 36.1%

Q: And the “Left Ventricle Diameter (end diastole)” value [1, 4]?
A: 8.64

Q: And the “Ejection Fraction” value [1, 5]?
A: 36.2%

Q: What about the “Left Ventricle Diameter (end diastole)” value [1, 5] of the same molecule?
A: 8.64*

Q: And the “Ejection Fraction” value [1, 6]?
A: 34.6%

Q: What about the “Left Ventricle Diameter (end diastole)” value [1, 6] of the same molecule?
A: 8.71*

B1: Example 3: NRG4 D1G/V22Q, (GGGGS)3 linker, SEQ ID NO: 12, fused to IgG Fc dimer SEQ ID NO: 6 and 7 (protein)
chain 1: GGGGSGGGGSGGGGSGHEEPCGPSHKSFCLNGGLCYQIPTIPSPFCRCVENYTGARCEEVFL
chain 2: ECPPCPAPPVAGPSVFLFPPKPKDTLMISRTPEVTCVVVDVSHEDPEVQFNWYVDGVEVHNAKTKPREEQFNSTFRVVSVLTVVHQDWLNGKEYKCKVSNKGLPAPIEKTISKTKGQPREPQVYTLPPSREEMTKNQVSLWCLVKGFYPSDIAVEWESNGQPENNYKTTPPVLDSDGSFFLYSKLTVDKSRWQQGNVFSCSVMHEALHNHYTQKSLSLSPG
chain 3: B1 chain 2 with W141S, L143A, Y182V
Q: Which EC50 (human HER2 and HER4; [7]) does the source give for B1 here?
A: 0.29 ± 0.01 nM

B2: Example 2: NRG4 D1G/P8E, (GGGGS)3 linker, SEQ ID NO: 11, fused to IgG Fc dimer SEQ ID NO: 6 and 7 (protein)
chain 1: B1 chain 1 with P23E, Q37V
chain 2: B1 chain 2
chain 3: B1 chain 2 with W141S, L143A, Y182V
Q: For B2, which EC50 (human HER2 and HER4; [7]) is on record?
A: 2.77 ± 0.39 nM

B3: Example 7: NRG4 D1G/I26F/E44H, (GGGGS)3 linker, SEQ ID NO: 16, fused to IgG Fc dimer SEQ ID NO: 6 and 7 (protein)
chain 1: B1 chain 1 with Q37V, I41F, E59H
chain 2: B1 chain 2
chain 3: B1 chain 2 with W141S, L143A, Y182V
Q: For B3, which EC50 (human HER2 and HER4; Table 6) is on record?
A: 0.563 nM

B4: Example 4: NRG4 D1G/I26F, (GGGGS)3 linker, SEQ ID NO: 13, fused to IgG Fc dimer SEQ ID NO: 6 and 7 (protein)
chain 1: B1 chain 1 with Q37V, I41F
chain 2: B1 chain 2
chain 3: B1 chain 2 with W141S, L143A, Y182V
Q: With B4 as the molecule, how does the EC50 (human HER2 and HER4; [7]) read?
A: 0.53 ± 0.05 nM

B5: Example 5: NRG4 D1G/E35A, (GGGGS)3 linker, SEQ ID NO: 14, fused to IgG Fc dimer SEQ ID NO: 6 and 7 (protein)
chain 1: B1 chain 1 with Q37V, E50A
chain 2: B1 chain 2
chain 3: B1 chain 2 with W141S, L143A, Y182V
Q: How did the EC50 (human HER2 and HER4; [7]) turn out when B5 was run?
A: 0.84 ± 0.27 nM

B6: Example 8: NRG4 D1G/I26F/P8E, (GGGGS)3 linker, SEQ ID NO: 17, fused to IgG Fc dimer SEQ ID NO: 6 and 7 (protein)
chain 1: B1 chain 1 with P23E, Q37V, I41F
chain 2: B1 chain 2
chain 3: B1 chain 2 with W141S, L143A, Y182V
Q: With B6 as the molecule, how does the EC50 (human HER2 and HER4; Table 6) read?
A: 0.403 nM

B7: Example 6: NRG4 D1G/I26F/E44K, (GGGGS)3 linker, SEQ ID NO: 15, fused to IgG Fc dimer SEQ ID NO: 6 and 7 (protein)
chain 1: B1 chain 1 with Q37V, I41F, E59K
chain 2: B1 chain 2
chain 3: B1 chain 2 with W141S, L143A, Y182V
Q: With B7 as the molecule, how does the EC50 (human HER2 and HER4; Table 6) read?
A: 0.395 nM
